# Measurements published in patent publication US12157713B2, “Conjugated oligoelectrolytes as antimicrobial agents” (Nanyang Technological University, priority 2018, dated 2024).
# Where two headings read alike, the source gives them in different places.
# Legend:
# [1] = test system: Acinetobacter baumannii ATCC 19606; assay: Single-dose growth inhibition, Ab; type: cell-based
# Description: Inhibition of bacterial growth was determined by measuring the absorbance at 600 nm (OD600), using a Tecan M1000 Pro monochromator plate reader. Growth inhibition was calculated for each well, relative to the reference growths determined from a negative control (media only) and positive control (bacteria without inhibitors) incubated in the same plate. A single dose of 32 μg/mL of COE (final concentration) was used for each test.
# Percentage growth inhibition of an individual sample was calculated based on growth in a reference well determined from negative controls (media only) and positive controls (bacterial/fungal media without inhibitors). Negative inhibition values indicate that the growth rate (or OD600) is higher compared to the reference growth (bacteria/fungi only, set to 0% inhibition). The growth rates for all bacteria and fungi may vary at −/+10%, which were within the reported normal distribution of bacterial/fungal growth. Any significant variations (or outliers/hits) were identified by the modified Z-Score, and the active compounds were selected by a combination of inhibition values and Z-Score.
# A M(i) value of >|2.5| (absolute) would classify the sample as outliers or hits. Active samples were denoted as compounds with inhibition values equal to or above 80% and absolute Z-Score above |2.5| for either replicate (n=2 on different plates). Partial active samples were denoted as compounds with inhibition values from 50% to <80%, or absolute Z-Score below |2.5|.
# [2] = Solubility in PBS / aqueous solubility; type: physicochemical
# [3] = DSC of treated unilamellar vesicles; settings: POPE:POPG 85:15 vesicles
# Description: POPE (1-palmitoyl-2-oleoyl-phosphatidylethanolamine) and POPG (1-palmitoyl-2-oleoyl-phosphatidylglycerol) were purchased as chloroform stocks from Avanti Polar Lipids. POPE and POPG were mixed to a molar ratio of 85:15 and dried under a gentle stream of nitrogen. The lipid cake obtained was further desiccated for overnight to obtain a thin lipid film. Rehydration of the dried film was carried out by adding 25 mM Tris, 150 mM NaCl, pH 7.5, to a concentration of 4.3 mg/mL, followed by incubation at 45° C. for 2 hrs, under constant stirring using a magnetic stirrer at around 300 rpm. To prepare the unilamellar vesicles, the vesicles suspension was repeatedly extruded through a polycarbonate membrane of 100 nm pores (21 times) at 45° C. The extruded vesicle sample was kept at 4° C. till further use. The vesicle solution was diluted to 0.86 mg/mL with buffer (25 mM Tris, 150 mM NaCl, pH 7.5) or the COE solution (25 mM Tris, 150 mM NaCl, pH 7.5) before the DSC measurements.
# Unilamellar vesicles composed of 1-palmitoyl-2-oleoylphosphatidylethanolamine (POPE) and 1-palmitoyl-2-oleoylphosphatidylglycero (POPG) in a molar ratio of 85:15 were prepared in accordance to the general method “Preparation of Small Unilamellar Vesicles” and were used as a generic bacterial model membrane (G. J. Gabriel, et al., Mater. Sci. Eng. R 2007, 57, 28-64).
# When subjected to DSC, the main gel-to-liquid-crystal transition peaks broadened after incubation with 8 μg mL^−1 of COE-D8 (FIG. 7a). For COE-D6, a higher concentration (16 μg mL^−1) was needed to change the initial trace (FIG. 7b). […] The perturbation to the cooperative transition of the lamellar phase reflects varying degrees of membrane intercalation. This observation correlates well with solubility and the alkyl chain length (Table 1a). Due to its lower aqueous solubility, COE-D8 is likely to partition more readily into hydrophobic domains of the lipid bilayer, leading to the weakened phase transition observed in the vesicles.
# [4] = test system: Staphylococcus aureus 25923; assay: MIC against S. aureus 25923; type: cell-based
# Description: (§1) The respective minimum inhibition concentration (MIC) of each COE molecule was determined using a broth microdilution method. Briefly, COEs were diluted via a 2-fold dilution series in 100 μL of either Muller Hinton Broth (MHB) for E. coli and S. aureus or Brain Heart Infusion Broth (BHI) for E. faecalis in a 96-well plate to achieve the desired final concentration. Subsequently, each well was inoculated with 100 μL of 1×10^6 colony forming units (CFU) mL^−1 of the respective microorganism in MHB for E. coli or BHI for E. faecalis to achieve an inoculum density of 5×10^5 CFU mL^−1. The plates were then incubated at 37° C. with shaking (200 rpm) for 18 hrs. […] The results were obtained in triplicate.
# (§2) The antimicrobial effects of COE-D62N and COE-D82N were also tested on the Gram-positive Staphylococcus aureus 25923 and Methicillin-resistant Staphylococcus aureus(MRSA BAA-40), in comparison with vancomycin (FIG. 5b).
# [5] = test system: Methicillin-resistant Staphylococcus aureus (MRSA BAA-40); assay: MIC against MRSA BAA-40; type: cell-based; settings: for MIC in comparison with vancomycin: all three strains: E. coli K12, S. aureus 25923, MRSA BAA-40 (FIG. 5b)
# Description: as §1, §2
# MRSA BAA-40 [6] = assay: Time-kill assay; type: cell-based, Staphylococcus aureus; settings: 32 μg/mL; for Reduction of viability of MRSA BAA-40 compared with vancomycin: FIG. 11a
# Description: A stationary-phase culture of MRSA BAA-40 was diluted to 2×10^8 CFU/mL in fresh MHB. 500 μL of this suspension was then mixed with another 500 μL of MHB containing twice the desired final concentrations of COEs and vancomycin (32 μg/mL). The tube was incubated at 37° C. with 200 rpm shaking. Aliquots were removed at various time points and were serially diluted in PBS, and plated on MHB plates to enumerate CFU/mL.
# MRSA BAA-40 [7] = assay: Resistance evolution experiment (serial passage); type: cell-based, Staphylococcus aureus; settings: for MIC on MRSA BAA-40 during serial passage: from the 5th day onwards, 17 days; for Tendency to cause resistance in the bacteria: serial passage for 17 days
# Description: To evaluate the propensity of COE to induce resistance, a serial passage of MRSA BAA-40 in MHB medium containing 100-fold diluted stationary-phase culture with increasing concentrations of COE was performed.
# [8] = test system: Staphylococcus aureus on reconstituted human epidermis (RHE); assay: Reconstituted human epidermis skin model inoculated with S. aureus; type: cell-based; settings: 10× the MIC of S. aureus
# Description: Reconstituted human epidermis (RHE) was cultured in multiwell plates on polymer membrane inserts (0.5 cm^2 surface area) using immortalized human keratinocytes (250,000 NTERTS) in CnT prime media (from CellnTec) for 48 hours after which they were transferred to CnT 3D prime media for 24 hours before air lifting. The media was changed every 48 hours thereafter and RHE was grown for at least 7 days. After the stratified layers of the RHE were formed, a standardised inoculum of Staphylococcus aureus was added to RHEs (with the exception of the negative control), followed by the addition of 10× the MIC of S. aureaus of antimicrobial COEs.
# [9] = Aqueous solubility (further tests); type: physicochemical; settings: aqueous medium (not further specified)
# HepG2 cells = assay: Toxicity on HepG2 cells; type: cell-based; settings: Homo sapiens
# [10] = Intrinsic clearance in human; type: in vitro ADME
# [11] = ATCC19606, read-out: Growth inhibition Ab
# [12] = aqueous buffer, in PBS, read-out: Solubility in PBS
# [13] = PBS (aqueous solubility), read-out: aqueous solubility
# [14] = ATCC19606, 32 μg/mL single dose, n=2, read-out: Growth inhibition Ab
Structure (SMILES),"inhibition at 32 µg/mL [1, 11] [%]","solubility [2, 12] [µg/mL]",Concentration needed to change the gel-to-liquid-crystal transition peak (DSC) [3] [µg/mL],"solubility [2, 13] [µg/mL]",MIC [4] [µg/mL],MIC ([5]; Staphylococcus aureus) [µg/mL],MIC in comparison with vancomycin [5],"inhibition at 32 µg/mL [1, 14] [%]",Reduction of viability of MRSA BAA-40 compared with vancomycin (MRSA BAA-40 [6]),MIC on MRSA BAA-40 during serial passage (MRSA BAA-40 [7]),Tendency to cause resistance in the bacteria (MRSA BAA-40 [7]),Skin structure of infected RHE model after treatment [8],solubility [9] [µM],IC50 (HepG2 cells) [µM],intrinsic clearance in human [10],Time to reduce viability of MRSA close to the minimum (MRSA BAA-40 [6]) [h]
C[N+](C)(C)CCCCOc1ccc(/C=C/c2ccc(OCCCC[N+](C)(C)C)cc2)cc1 [COE-D4],< 50,3100,> 32,,,,,,,,,,,,,
C[N+](C)(C)CCCCCCOc1ccc(/C=C/c2ccc(OCCCCCC[N+](C)(C)C)cc2)cc1 [COE-D6],< 50,240,16,240,,,,,,,,,,,,
C[N+](C)(C)CCCCCCCCOc1ccc(/C=C/c2ccc(OCCCCCCCC[N+](C)(C)C)cc2)cc1 [COE-D8],> 80,65,8,,,,,,,,,,,,,
CN(C)CC[N+](C)(C)CCCCCCOc1ccc(/C=C/c2ccc(OCCCCCC[N+](C)(C)CCN(C)C)cc2)cc1 [COE-D62N],,,,> 4000,1,1,lower MIC than vancomycin,> 80,much faster than that of vancomycin,remained relatively constant,low tendency to cause resistance,intact skin structure,> 200,> 30,good,
CN(C)CC[N+](C)(C)CCCCCCCCOc1ccc(/C=C/c2ccc(OCCCCCCCC[N+](C)(C)CCN(C)C)cc2)cc1 [COE-D82N],,,,,,,lower MIC than vancomycin,> 80,much faster than that of vancomycin,remained relatively constant,low tendency to cause resistance,intact skin structure,,,,≤ 2
